{"source": "patent US8101580B2", "about": "“Therapeutic agent for irritable bowel syndrome” (Astellas Pharma Inc., priority 2005, dated 2012)", "key": {"BB2 receptor": {"target": "T1, BB2 receptor (Homo sapiens, UniProt P30550)", "T1 construct": "endogenous in cells; host or cells: PC-3 human prostate cancer cells (membrane preparation)", "T1 sequence (P30550 whole entry)": "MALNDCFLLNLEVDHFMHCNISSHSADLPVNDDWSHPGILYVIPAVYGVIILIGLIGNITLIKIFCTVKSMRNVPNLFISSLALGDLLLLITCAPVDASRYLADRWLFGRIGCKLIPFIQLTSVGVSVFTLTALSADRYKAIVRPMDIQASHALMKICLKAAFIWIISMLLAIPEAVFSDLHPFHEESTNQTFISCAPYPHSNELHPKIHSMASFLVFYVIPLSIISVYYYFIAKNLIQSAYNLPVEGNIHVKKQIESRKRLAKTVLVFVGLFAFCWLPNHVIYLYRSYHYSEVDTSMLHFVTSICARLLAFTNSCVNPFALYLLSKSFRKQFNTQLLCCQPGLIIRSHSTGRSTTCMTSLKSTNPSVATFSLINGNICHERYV", "experiment": "BB2 receptor binding test (125I [Tyr4] bombesin, PC-3 cell membrane sample)", "details": "membrane sample of human prostate cancer-derived PC-3 cell; 125I [Tyr4] bombesin 0.075 nM; room temperature, 2 hours; read-out: 50% binding inhibition concentration", "experimental": "A BB2 receptor binding test was carried out using a membrane sample prepared from a human prostate cancer-derived PC-3 cell. The PC-3 cell was cultured using RPMI-1640 medium containing 5% fetal bovine serum, and then a membrane sample was prepared by the following methods. The cells loosened by a trypsin treatment were mixed with 50 mM Tris-HCl buffer (pH 7.4, containing 0.2 mg/ml trypsin inhibitor and 0.2 mg/ml benzamidine) and homogenized by Polytron. The cell suspension was centrifuged at 1,500 rpm for 10 minutes, and the thus obtained supernatant was subjected to 1 hour of ultracentrifugation at 37,000 rpm. The precipitate was suspended in the aforementioned buffer to a concentration of 0.4 mg protein/ml and stored at −80° C.\nThe BB2 receptor binding test was carried out by the following method, and the receptor antagonistic activity of a compound to be tested was calculated. A 50 μl portion of the membrane sample, 50 μl of an assay buffer (20 mM HEPES-HBSS containing 0.1% bovine serum albumin and 0.1 mg/ml bacitracin, pH 7.4) ^125I [Tyr^4] bombesin (0.075 nM) and 2 μl of each compound to be tested dissolved in dimethyl sulfoxide were added to a 96 well assay plate and incubated at room temperature for 2 hours. Non-specific binding was measured using 1 μM of bombesin. After completion of the incubation, the reaction liquid was filtered through a Whatman GF/B filter which had been soaked in 0.5% polyethyleneimine. The radioactivity on the filter was measured using a microplate scintillation counter (Top Count, Perkin-Elmer)."}, "[1]": {"system": "fed male Sprague-Dawley rats", "experiment": "Conditioned-fear stress (CFS)-induced defication model", "format": "in vivo", "details": "wet weight of feces for 30 minutes", "experimental": "Fed male Sprague-Dawley rats were used. The rats were put into an electric shock device having a grid set in the floor (17×17×39 cm, trade name: CB 2000 type, O'Hara), and conditioning was carried out after 3 seconds of a warning sound, by applying an electric current of 2.5 mA for 5 seconds per once per minute, a total of 15 times, and carrying out light irradiation by three 40 W electric bulbs at the time of the electric shock. The normal group was put into the measuring device by the same protocol, but the electric shock was not applied. After about 24 hours, the rats were again put into the electric shock device just after intraperitoneal administration of tested compound, and CFS loading was carried out by applying 3 seconds of warning sound and 5 seconds light irradiation for 30 minutes. Wet weights of excreted feces were measured for 30 minutes starting from the commencement of CFS loading. In this connection, the feces just after putting of the rats into the measuring device were excluded from measured values."}, "fed male Wistar rats": {"system": "fed male Wistar rats", "experiment": "Abdominal pain model by large intestinal distension using abdominal muscle contraction reaction as the index", "format": "in vivo", "experimental": "Fed male Wistar rats were used. Under pentobarbital anesthesia, an electrode for electromyogram use (trade name: M-1.5I, Star Medical) was sewed on the outer abdominal oblique muscle. The electrode cord was fished out from the body of around the back of the head through the skin and protected with a protective jacket prepared by processing Velcro. The test was carried out when 5 days or more passed after the surgical operation.\nOn the day of the test, a latex balloon of 5 to 6 cm in length was inserted from the rat anus under a light ether anesthesia and adjusted such that the balloon end is positioned at 2 cm from the anus. The catheter continuing from the balloon was fixed to the tail base with a tape and connected to a pressure transducer and a plastic bottle filled with water via a three-way cock. The plastic bottle was connected to a motor-aided device such that its height can be increased at a constant rate, and the colon-rectum was distended by increasing height of the plastic bottle. The balloon internal pressure signal was amplified using an amplifier for strain pressure use. After recovering from the ether anesthesia in a cage (23.5×19×19 cm), the colon-rectum distension was carried out. […] As a result, the abdominal muscle contracts and the electromyogram activities increase suddenly and sharply. The pressure at this point of time was regarded as the abdominal pain reflection threshold value. The electromyogram activities were amplified using an amplifier for bioelectric use (trade name: AB-621G, Nihon Kohden Corp.), and recorded by a data recording interface (trade name: 1401 plus, Cambridge Electronic Design, Cambridge, England). The colon-rectum distension was repeatedly carried out at intervals of 4 minutes until completion of the test. The compound was administered 2 minutes after completion of the measurement of the pre-administration value, and the colon-rectum distension was repeated until 60 minutes after the administration. […]"}, "fed male ddY mice": {"system": "fed male ddY mice", "experiment": "Restraint stress-induced defication model", "format": "in vivo", "details": "for 50% inhibition dose for restraint stress-induced defication: number of feces excreted during 1 hour of restraint", "excerpt": "RC-3095 was used by dissolving in physiological saline, and compound 1, compound 3 and compound 5 in physiological saline containing 5% ethanol+5% Cremophor, and compound 2 and compound 4 in water for injection containing 20% propylene glycol+20% Tween 80. Just after intraperitoneal administration of a compound to be tested to each of fed male ddY mice, the animal was put into a restraint stress cage (KN-469, Natsume Seisakusho). The number of feces excreted during a period of from the restriction commencement to 1 hour thereafter was measured. Normal group was put into a separate cage, and number of feces excreted during 1 hour was measured in the same manner."}, "patients": {"system": "patients", "details": "IBS patients; cited from earlier work"}}}
{"smiles": "CC(C)CC(CN[C@@H](CC(C)C)C(N)=O)NC(=O)[C@H](Cc1cnc[nH]1)NC(=O)CNC(=O)[C@@H](NC(=O)C(C)NC(=O)[C@H](Cc1c[nH]c2ccccc12)NC(=O)[C@H](CCC(N)=O)NC(=O)[C@H]1Cc2c([nH]c3ccccc23)CN1)C(C)C", "note": "(some centres unmarked) [RC-3095]", "values": [{"measurement": "IC50", "setting": "BB2 receptor", "value": 20, "unit": "nM"}, {"measurement": "effect on CFS-induced defication at 10 mg/kg (in words)", "setting": "[1]; 10 mg/kg intraperitoneal", "value": "significant inhibitory action"}, {"measurement": "effect on CFS-induced defication (in words)", "setting": "[1]; intraperitoneal, FIG. 8", "value": "dose-dependent inhibitory effect on the defication"}, {"measurement": "action on abdominal pain threshold value at 3 mg/kg (in words)", "setting": "fed male Wistar rats; 3 mg/kg, AUC of threshold values until 60 minutes", "value": "significant increasing action"}, {"measurement": "action on abdominal pain threshold value at 10 mg/kg (in words)", "setting": "fed male Wistar rats; 10 mg/kg, AUC of threshold values until 60 minutes", "value": "significant increasing action"}, {"measurement": "action on abdominal pain threshold value (in words)", "setting": "fed male Wistar rats; AUC of threshold values until 60 minutes after administration, FIG. 9", "value": "dose-dependently increase abdominal pain threshold value"}, {"measurement": "effect on restraint stress-induced defication (in words)", "setting": "fed male ddY mice; intraperitoneal, FIG. 2", "value": "dose-dependent inhibitory effect on the defication"}, {"measurement": "50% inhibition dose for restraint stress-induced defication", "setting": "fed male ddY mice; intraperitoneal", "value": 5.2, "unit": "mg/kg"}]}
{"smiles": "Cc1[nH]cnc1CN1CCc2c(c3ccccc3n2C)C1=O", "note": "[alosetron]", "values": [{"measurement": "improving rate for abdominal symptoms and diarrhea", "setting": "patients", "value": "40 to 60", "unit": "%"}, {"measurement": "serious side effect", "setting": "patients", "value": "ischemic colitis (including mortal cases)"}]}
{"smiles": "c1ccc(-c2sc(-c3ccccn3)nc2-c2cccc3ccccc23)cc1", "note": "[compound 1, 2-[4-(1-naphthyl)-5-phenyl-1,3-thiazol-2-yl]pyridine]", "values": [{"measurement": "IC50", "setting": "BB2 receptor", "value": 504, "unit": "nM"}, {"measurement": "inhibitory effect on the defication", "setting": "fed male ddY mice; 10 mg/kg intraperitoneal, number of feces during 1 hour of restraint", "value": "about 83%"}]}
{"smiles": "O=C(/C=C/c1ccc(-c2ccc([N+](=O)[O-])cc2)o1)c1ccccc1", "note": "[compound 2, (2E)-3-[5-(4-nitrophenyl)-2-furyl]-1-phenyl-2-propen-1-one]", "values": [{"measurement": "IC50", "setting": "BB2 receptor", "value": 1330, "unit": "nM"}, {"measurement": "50% inhibition dose for restraint stress-induced defication", "setting": "fed male ddY mice; intraperitoneal", "value": 34.3, "unit": "mg/kg"}]}
{"smiles": "O=C(Nc1ccc(S(=O)(=O)N2CCCCC2c2cccnc2)cc1)c1cc([N+](=O)[O-])ccc1Cl", "note": "(centres unmarked) [compound 3, 2-chloro-5-nitro-N-(4-{[2-(pyridin-3-yl)piperidin-1-yl]sulfonyl}phenyl)benzamide]", "values": [{"measurement": "IC50", "setting": "BB2 receptor", "value": 342, "unit": "nM"}, {"measurement": "50% inhibition dose for restraint stress-induced defication", "setting": "fed male ddY mice; intraperitoneal", "value": 19.0, "unit": "mg/kg"}]}
{"smiles": "COc1ccc(N(CC(=O)Nc2ccc(Cl)cc2C)S(=O)(=O)c2ccccc2)cc1OC", "note": "[compound 4]", "values": [{"measurement": "IC50", "setting": "BB2 receptor", "value": 398, "unit": "nM"}, {"measurement": "50% inhibition dose for restraint stress-induced defication", "setting": "fed male ddY mice; intraperitoneal", "value": 13.5, "unit": "mg/kg"}]}
{"smiles": "COc1cc(OC)cc(C(=O)Nc2sc3c(c2-c2nc4ccccc4s2)CCN(C(C)C)C3)c1.Cl", "note": "[compound 5, N-[3-(1,3-benzothiazol-2-yl)-6-isopropyl-4,5,6,7-tetrahydrothieno[2,3-c]pyridin-2-yl]-3,5-dimethoxybenzamide hydrochloride]", "values": [{"measurement": "IC50", "setting": "BB2 receptor", "value": 383, "unit": "nM"}, {"measurement": "50% inhibition dose for restraint stress-induced defication", "setting": "fed male ddY mice; intraperitoneal", "value": 15.6, "unit": "mg/kg"}]}
